Values of other authors, collected in patent US6858638B2, “Substituted indazoles, compositions containing them, method of production and use” (Aventis Pharma S.A., priority 2002, dated 2005).

Key:
NCI-H460 cells = conditions: concentration of 100 μM; cited from earlier work
HCT-15 cells = conditions: concentration of 100 μM; cited from earlier work

For COc1cc(S(=O)(=O)Nc2ccc3[nH]ncc3c2)cc(OC)c1OC [N-(1H-indazol-5-yl)-3,4,5-trimethoxybenzenesulfonamide], the growth inhibition (NCI-H460 cells) is listed as 18.5% and the growth inhibition (HCT-15 cells) is listed as 47.6%.
